Data reported in patent publication EP1605929B1, “NON-STEROIDAL ANTI-INFLAMMATORY DRUG DOSING REGIMEN” (McNeil-PPC, Inc., priority 2003, dated 2004).

Legend:
[1] = Therapeutic duration of action of an effective immediate release dose, from dosing instructions in product labeling
Procedure: As used herein, "ATDAIRD" shall mean the average therapeutic duration of action of an effective immediate release dose" of a particular active ingredient. For example, the typical duration of action of an immediate release dose of ibuprofen or ketoprofen is about 4 to about 6 hours. […] The therapeutic duration of action of a particular active ingredient can readily be determined from the dosing instructions in the labeling for immediate release products containing that particular active ingredient.

[2] = test system: moderate to severe post-operative dental pain; assay: PK/PD dental pain study, pain relief scores and pain intensity differences over a 12 hour observation period; format: in vivo, human
Procedure: A double-blind, randomized, parallel, placebo-controlled, single center, PK/PD dental pain study was conducted over a 12 hour observation period to evaluate the pharmacokinetic, pharmacodynamic, efficacy and safety profiles of certain ibuprofen dosing regimens. Specifically, a single dose of 600 mg ibuprofen extended release caplets was compared with equivalent total doses of ibuprofen immediate release 200 mg caplets administered in three different dosing regimens as well as placebo in the treatment of moderate to severe post-operative dental pain.
The ibuprofen was administered as ibuprofen extended release 600 mg caplets or one or more ibuprofen immediate release 200 mg caplets.
The patients evaluated in this study consisted of male or non-pregnant and non-lactating female out-patient volunteers, 16 years of age or older, complaining of moderate to severe pain following the surgical extraction of three or four third molars with at least one partial or complete bony impacted third mandibular molar. The term impacted included: partial bony impaction, bony impaction, or complicated bony impaction. A total of 210 patients were entered into the study. 208 patients were eligible for the efficacy analyses.
All patients who met the entrance criteria were enrolled in one of two study sub-groups. One sub-group of patients had both pharmacokinetic and pharmacodynamic evaluation (PK group). The other sub-group of patients had only the analgesic efficacy evaluations (non-PK group). A separate randomization schedule was used for each of the two sub-groups. Patients from both subgroups were assigned at random to one of the five following treatments:
Patients' assessments of pain intensity and pain relief as well as blood samples for plasma ibuprofen analysis were obtained at the study site at hours 0, 0.25, 0.5, 1, 1.5, 2, 2.5, 3, 4, 4.5, 5, 6, 7, 8, 8.5, 9, 10, 11 and 12. A stopwatch technique was used to measure the onset of meaningful pain relief.

| SMILES | ATDAIRD (average therapeutic duration of action of an effective immediate release dose) [1] [h] | pain relief ([2]; 400/200/0 administration (immediate release, 400 mg at 0 hour; 200 mg at 4 hours), entire 12 hour study period, Figure 2) | pain relief ([2]; 400/200/0 treatment (immediate release, 400 mg at 0 hour; 200 mg at 4 hours), first four hours, Figure 2) | pain relief scores ([2]; 400/200/0 treatment, 4 to 12 hour interval, no further ibuprofen after the first four hours, Figure 2) | pain intensity differences (PID) ([2]; 400/200/0 treatment, 12 hour study period, particularly after the four hour mark, Figure 3) | pain relief ([2]; 600/0/0 immediate release treatment (600 mg single dose at 0 hour), first four hours, Figure 2) |
| --- | --- | --- | --- | --- | --- | --- |
| CC(C(=O)O)c1cccc(C(=O)c2ccccc2)c1 (centres unmarked) [ketoprofen] | 5 | – | – | – | – | – |
| COc1ccc2cc([C@H](C)C(=O)O)ccc2c1 [naproxen] | 10 | – | – | – | – | – |
| CC(C)Cc1ccc(C(C)C(=O)O)cc1 (centres unmarked) [ibuprofen, 2-(4-isobutylphenyl)-propionic acid] | 5 | excellent pain relief | superior pain relief over the other treatments | highest pain relief scores | best PID | superior pain relief over the other treatments |
